Marks after values point to notes of the source that are not given here.
Legend:
[1] = liver lipid levels in hepatoma-bearing rats; assay type: in vivo, rat; conditions: mean ± SEM of 11 rats
Method: Male Donryu rats of four weeks old were purchased from NRC Haruna, Gumma, Japan, and were preliminarily fed for 6 days in quintuple cages in a room with a controlled environment with light period of 8:00 to 20:00, room temperature of 22±1° C., and relative humidity of 60±5%. For the first 3 days, the animals were fed ad libitum with a stock pellet diet (CE-2; CLEA Japan, Tokyo), and for the next 3 days, they were fed a basal diet containing 20% milk casein (20C) (Table 1) ad libitum together with tap water in a glass container. Following the completion of this preparatory raising, the rats were divided into three groups (11 animals per group) with equal average body weights of the respective groups were equal, and 1.0×10^7 of AH109A cells suspended in PBS (−) were transplanted in the back of all the rats. From the time immediately after transplantation, in the respective experimental groups, the animals were fed the experimental diets shown in Table 2.
During the experimental period, the body weight, food intake and solid tumor size (sum of length, width and height) were measured everyday. On the day that the animals were killed, animals were deprived of experimental diets at 9:00, but freely given water until they were killed 4 hours later. Blood was collected from carotid, and the liver and solid tumors were excised. The collected blood was allowed to stand for approximately 2 hours at room temperature, and then centrifuged for 10 minutes at 3000 rpm (1750×g), 4° C., to obtain serum. This blood serum was frozen and stored at −20° C. The livers and solid tumors were washed with physiological saline, blotted on filter paper, and weighed. Furthermore, feces from the 19th to 21st days after transplantation were collected, and these feces were frozen and stored at −20° C. for the measurement of the amounts of steroids excreted from the body.
Total lipids were extracted from the liver for the measurement of lipid levels by the method of Folch et al. (FOLCH J, LEES M, SLOAN-STANLEY G H, A simple method for the isolation and purification of total lipids from animal tissues, J. Biol. Chem. 226: 497-509, 1957). Approximately 0.5 g of liver tissue was weighed out, this tissue was homogenized using a Polytron homogenizer (Type PT10/35, Kinematica, Switzerland) in 5 ml of methanol; then, 10 ml of chloroform was added and mixed, the resulting preparation was allowed to stand overnight, and then filtered. […]
The Ch content was measured by the Zak method (Zak B., Simple rapid microtechnic for serum total cholesterol, Am. J. Clin. Path. 27, 583-588, 1957). […] The resulting mixture was agitated and this preparation was allowed to stand until cool; then, the absorbance at 560 nm thereof was measured with Ch as a standard. […]

[2] = serum lipid levels in hepatoma-bearing rats; assay type: in vivo, rat; conditions: for Serum lipid level (VLDL + LDL)-Cholesterol (B): difference between T-Ch and HDL-Ch; for Serum lipid level (VLDL + LDL)-Cholesterol (B) / AI (B/A), atherogenic index / Serum lipid level HDL-Cholesterol (A) / Serum lipid level Total Cholesterol / Serum lipid level Triglyceride: mean ± SEM of 11 rats
Method: Male Donryu rats of four weeks old were purchased from NRC Haruna, Gumma, Japan, and were preliminarily fed for 6 days in quintuple cages in a room with a controlled environment with light period of 8:00 to 20:00, room temperature of 22±1° C., and relative humidity of 60±5%. For the first 3 days, the animals were fed ad libitum with a stock pellet diet (CE-2; CLEA Japan, Tokyo), and for the next 3 days, they were fed a basal diet containing 20% milk casein (20C) (Table 1) ad libitum together with tap water in a glass container. Following the completion of this preparatory raising, the rats were divided into three groups (11 animals per group) with equal average body weights of the respective groups were equal, and 1.0×10^7 of AH109A cells suspended in PBS (−) were transplanted in the back of all the rats. From the time immediately after transplantation, in the respective experimental groups, the animals were fed the experimental diets shown in Table 2. During the experimental period, the body weight, food intake and solid tumor size (sum of length, width and height) were measured everyday. On the day that the animals were killed, animals were deprived of experimental diets at 9:00, but freely given water until they were killed 4 hours later. Blood was collected from carotid, and the liver and solid tumors were excised. The collected blood was allowed to stand for approximately 2 hours at room temperature, and then centrifuged for 10 minutes at 3000 rpm (1750×g), 4° C., to obtain serum. This blood serum was frozen and stored at −20° C. The livers and solid tumors were washed with physiological saline, blotted on filter paper, and weighed. Furthermore, feces from the 19th to 21st days after transplantation were collected, and these feces were frozen and stored at −20° C. for the measurement of the amounts of steroids excreted from the body. Serum cholesterol (Ch) and triglyceride (TG) concentration was measured. Total cholesterol (T-Ch) level, the high-density-lipoprotein (HDL-Ch) level (which is the supernatant fraction obtained by precipitating very-low-density-lipoprotein+low-density-lipoprotein ((VLDL+LDL)-Ch fractions) by the precipitation method using phosphotungstic acid were measured. The (VLDL+LDL)-Ch level was taken as the difference between the T-Ch and the HDL-Ch levels. Atherogenic index (AI: (VLDL+LDL)-Ch/HDL-Ch ratio) was calculated as an index of atherogenesis.

[3] = ENL diet groups versus control diet group

O=C1OCC(Cc2cccc(O)c2)C1Cc1cccc(O)c1 (centres unmarked) [Enterolactone, enterolactone]
Liver lipid level Total cholesterol ([1]; diet 10 ppm): 5.15 ± 0.43 μmol/g liver
Liver lipid level Triglyceride ([1]; diet 10 ppm): 43.8 ± 3.83 μmol/g liver
Liver lipid level Total cholesterol ([1]; diet 100 ppm): 5.47 ± 0.40 μmol/g liver
Liver lipid level Triglyceride ([1]; diet 100 ppm): 42.8 ± 7.05 μmol/g liver
(VLDL+LDL)-Ch in the blood serum [2, 3]: decreased significantly in a dose-dependent manner
AI value, ratio of (VLDL+LDL)-Ch to HDL-Ch [2, 3]: tendency to decrease
HDL-Ch in the blood serum ([2]; ENL diet groups versus control diet group, not significant): tendency increase
Serum lipid level (VLDL + LDL)-Cholesterol (B) ([2]; diet 10 ppm): 0.68 ± 0.12^b mmol/L
AI (B/A), atherogenic index ([2]; diet 10 ppm): 0.48 ± 0.09
Serum lipid level HDL-Cholesterol (A) ([2]; diet 10 ppm): 1.45 ± 0.07 mmol/L
Serum lipid level Total Cholesterol ([2]; diet 10 ppm): 2.13 ± 0.14 mmol/L
Serum lipid level Triglyceride ([2]; diet 10 ppm): 0.98 ± 0.06 mmol/L
Serum lipid level (VLDL + LDL)-Cholesterol (B) ([2]; diet 100 ppm): 0.67 ± 0.08^b mmol/L
AI (B/A), atherogenic index ([2]; diet 100 ppm): 0.41 ± 0.05
Serum lipid level HDL-Cholesterol (A) ([2]; diet 100 ppm): 1.63 ± 0.06 mmol/L
Serum lipid level Total Cholesterol ([2]; diet 100 ppm): 2.30 ± 0.12 mmol/L
Serum lipid level Triglyceride ([2]; diet 100 ppm): 0.93 ± 0.06 mmol/L
